Experiments:
Beclin 1 / Bcl-2 = assay: Beclin 1 immunoprecipitation probed with anti-Bcl-2; assay type: cell-based, Human; conditions: mitochondrial preparations of Cpd 1 treated cells
Text: FIG. 8. Molecular evidence of autophagic cell death in R-182 ovarian cancer cells induced by Cpd 1. […] B, Beclin 1 binds to Bcl-2. Immunoprecipitation study using mitochondrial preparations of cells pre-treated with Cpd 1 as stated in A, and subjected to beclin 1 immunoprecitation. Immunoprecipitated fractions were washed in PBS, subjected to SDS-PAGE, blotted and then probed with a mouse anti-Bcl-2 antibody. Actin and Topo-1 were used as loading control. C, Depolarized cells resulting from over-expression of Bax and Beclin 1 following administration of Cpd 1. Cells were treated with Cpd 1 as described in A, pelleted and washed in HBSS and the cell pellet resuspended in the reaction buffer for JC-1 (Biovision, Inc. MitoCapture™ K250-100). HBSS-washed cells were analysed by flow cytometry (λexcit=488 nm and (λemit=530 nm for green fluorescence (depolarized) or 590 nm for red fluorescence (polarized). 10,000 gated events were measured with a BD FACScalibur. Results were expressed as mean±standard deviation (n=3).
To measure membrane depolarization cells were treated with Cpd 1 as described above, pelleted and washed in HBSS and the cell pellet resuspended in the reaction buffer for JC-1 (Biovision, Inc. MitoCapture™ K250-100). HBSS-washed cell pellets were resuspended in 1 mL aliquots of the Mitocapture reagent buffer with 1 μL of JC-1 solution in DMSO (Biovision).

endonuclease G = assay: Immunohistology of xenograft tumour sections, endonuclease G; assay type: in vivo, SCID mice; conditions: 100 mg/kg, compared to control
Procedure: FIG. 11. Cpd 1 markers of autophagy observed in in vitro studies are also present in vivo. […] T-S6K served as loading control.
In vivo studies using tumour-bearing mice were conducted to further confirm that Cpd 1 induces programmed cell death via an autophagic process. SCID mice bearing chemoresistant epithelial ovarian cancer (EOC) xenografts derived from a primary cell culture of a patient's ascites were administered with increasing doses of Cpd 1 by intraperotineal injection resulting in reductions in both tumor volume and tumor weight (data not shown). Representative tumours excised from these mice and tumour-bearing mice administered vehicle control were then fixed, sectioned and subjected to immunohistopathology analysis using an α-enodonuclease G directed monoclonal antibody. Tumor samples were blocked with either 10% horse or goat serum in PBS for 1 hour at room temperature. Following three washes with PBS, samples were incubated overnight at 4° C. with either the anti-EndoG (LifeSpan Bioscience) antibody or mouse IgG1 isotype as negative controls. After three washes with PBS, specific staining was detected by incubating with a peroxidase-conjugated horse anti-mouse antibody (1:1000 dilution) for 1 hour followed by a five-minute incubation with DAB substrate (Vector Laboratories). […]

COc1ccc([C@H]2c3ccc(O)c(C)c3OC[C@H]2c2ccc(O)cc2)cc1 (stereo in doubt) [Cpd 1, 3-(4-hydroxyphenyl)-4-(4-methoxyphenyl)-8-methylchroman-7-ol]
Beclin and Bcl-2 co-precipitation (Beclin 1 / Bcl-2): co-precipitate at higher concentrations compared to control
expression of nuclear endonuclease G in tumour sections (endonuclease G): increased
